Like-named read-outs stand apart in the source and are kept apart here.
Tests used:
[1] = not given; remark: listed apart in the source
[2] = not given; remark: listed apart in the source
[3] = not given; remark: listed apart in the source

## Cc1cc2nc3c(=O)[nH]c(=O)nc-3n(C[C@H](O)[C@H](O)[C@H](O)CO)c2cc1C [riboflavin]
other
  potentiometric selectivity coefficient of DPA sensor (j: interference): 7.78

## KCl
other
  potentiometric selectivity coefficient of DPA sensor (j: interference): 44.4

## N[C@@H](Cc1ccc(O)cc1)C(=O)O [L-tyrosine]
other
  potentiometric selectivity coefficient of DPA sensor (j: interference): 2.22 × 10^−3

## O=C(O)C[C@@H](NC(=O)OCc1ccccc1)C(=O)O [N-CBZ-D-Asp]
[1]
  potentiometric selectivity coefficient for L-isomer in the presence of D-isomer: 9×10^−3
[1]; pH 6.8
  potentiometric selectivity coefficient for N-CBZ-L-Asp with respect to N-CBZ-D-Asp: 0.08
[2]; 0.20 mM
  D-Asp sensor output: 47 Mv
[2]; 0.33 mM
  D-Asp sensor output: 55 Mv
[2]; 0.50 mM
  D-Asp sensor output: 62 Mv
[2]; 0.64 mM
  D-Asp sensor output: 68 Mv
[2]; 0.79 mM
  D-Asp sensor output: 71 Mv
[2]; 0.93 mM
  D-Asp sensor output: 76 Mv
[2]; 1.49 mM
  D-Asp sensor output: 100 Mv
[2]; 2.79 mM
  D-Asp sensor output: 158 Mv
[2]; 4.09 mM
  D-Asp sensor output: 192 Mv
[2]; 5.32 mM
  D-Asp sensor output: 203 Mv

## NC(Cc1c[nH]c2ccccc12)C(=O)O (racemic) [DL-tryptophan]
other
  potentiometric selectivity coefficient of DPA sensor (j: interference): 2.22 × 10^−3

## O=C(O)C[C@H](NC(=O)OCc1ccccc1)C(=O)O [N-CBZ-L-Asp]
[1]; 0.095 mM
  L-Asp sensor output: 37 mV
[1]; 0.20 mM
  L-Asp sensor output: 49 mV
[1]; 0.33 mM
  L-Asp sensor output: 59 mV
[1]; 0.50 mM
  L-Asp sensor output: 65 mV
[1]; 0.64 mM
  L-Asp sensor output: 72 mV
[1]; 0.79 mM
  L-Asp sensor output: 78 mV
[1]; 0.93 mM
  L-Asp sensor output: 84 mV
[1]; 1.49 mM
  L-Asp sensor output: 114 mV
[1]; 2.79 mM
  L-Asp sensor output: 172 mV
[1]; 4.09 mM
  L-Asp sensor output: 205 mV
[1]; 5.32 mM
  L-Asp sensor output: 222 mV
[2]
  potentiometric selectivity coefficient for D-isomer in the presence of L-isomer: 4×10^−3

## NaCl
other
  potentiometric selectivity coefficient of DPA sensor (j: interference): 20

## CaCO3
other
  potentiometric selectivity coefficient of DPA sensor (j: interference): 2.22

## COC(=O)C=C(C)OP(=O)(OC)OC [phosdrin]
[3]
  potentiometric selectivity coefficient of MPA sensor to interferences: 3.33 × 10^−4

## O=C(O)C[C@@H](O)C(=O)O [D(+)-malic acid]
other
  potentiometric selectivity coefficient of DPA sensor (j: interference): 35.56

## K2HPO4
other
  potentiometric selectivity coefficient of DPA sensor (j: interference): 4.44

## O=C(O)c1cccc(C(=O)O)n1 [DPA, pyridine-2,6-dicarboxylic acid]
pH 7.2
  DPA adsorbed in the sensor concentrated versus control: 23 times

## O=P(O)(O)O [H3PO4]
[3]
  potentiometric selectivity coefficient of MPA sensor to interferences: 7.5×10^−3

From US20040058380A1 (priority 2002, published 2004)
